Experiments:
[1] = system: blood platelets; assay: Inhibition of blood platelet aggregation (aggregometer, ADP); assay type: cell-based, human (healthy testees); conditions: Platelet, 0.05 h; human PRP, ADP 2 to 4 μM, 3 min incubation, 37° C.; read-out: IC50 (Inhibition of blood platelet aggregation)
How it was run: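 Citrated human PRP (0.38% sodium citrate final; donors drug-free ≥8 days) preincubated 3 min with test substance at 37 °C under stirring, then ADP 2 to 4 μM added; aggregation followed by light transmission against PPP. IC50 from linear regression of % inhibition vs log concentration.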

[2] = system: PAI-1; assay: Inhibition of plasminogen activator inhibitor (PAI-1) from blood platelets (fibrinolytic activity); assay type: cell-based, human; conditions: 50 μM, 60 minutes
Description: Compounds according to the invention were tested for their inhibition of plasminogen activator inhibitor (PAI). An established thrombus comprises aggregated platelets cohered by fibrin. The organism has a fibrinolyric system for maintaining normal physiological conditions. Endogenous plasminogen is activated to plasmin (fibrinolysin, that is a proteolytic enzyme decomposing fibrin) by means of a tissue plasminogen activator (t-PA). The platelets include the enzyme PAI-1 inhibiting the activation of plasminogen to plasmin, and thus also the decomposition of fibrin.
A general stimulation of the fibrinolytic system can cause serious hemostatic side effects (haemorrhages). A specific inhibition of PAI-1 induces an increased fibrinolysis in areas with many platelets, which is exactly the case in thrombi. As a result a thrombolytic effect is obtained.
Human PRP prepared by slight centrifugation as previously mentioned is used, but at a low temperature (4° C.). By incubation of PRP (1 ml in a plastic tube) during a slight shaking at 37° C. the PAI-1 activity is liberated, said PAI-1 activity being measured spectrophotometrically by means of a two-step procedure using commercial kits (Spectrolyse™/fibrin kit from BIOPOOL, Sweden).
The PAI-1 activity of the control PRP and PRP incubated with each of 6 compounds according to the invention and the reference substance sodium niroprusside (NNP) (50 μM of each for 60 minutes) appear from Table 6.

[3] = system: pre-contracted trachea; assay: Relaxation of pre-contracted isolated trachea; design: species or system guinea pig; conditions: Cavia porcellus; carbamylcholine 0.3 μM, Krebs buffer, 37° C.
Description: Compounds according to the invention were tested for their ability to relax a pre-contracted trachea. A contraction of the respiratory passages in combination with a swelling of the mucuos membrane therein presents a vital factor at asthmatic conditions. Relaxation or dilation of the contracted respiratory passages will improve the asthmatic condition.
An isolated trachea from a guinea pig is used. After preparation of a strip which has maintained the circular musculature, the organ is divided into two parts of equal size. The two tracheal strips are suspended in their respective organ bath and connected to a transducer recording the contraction and relaxation of the organ by means of a recorder. The two tracheal strips are continuously bathed in a Krebs buffer at 37° C., constantly bubbled with carbogen (95% O2 and 5% CO2). After an equilibration time of about 3 hours the organs are tested for their sensitivity (contractility) to carbamylcholin a bolus being added directly to the bath (0.3 μM). If the contraction is satisfactory, the organs are transferred to the Krebs buffer containing the same concentration of carbamylcholine. The organs are now constantly exposed to the carbamylcholine and slowly develop a permanent contraction ("asthma"). The test substances are in bolus form added directly to the organ bath. After maximum effect (relaxation) the substances are removed by washing out and the tracheal strip reverts to its permanent contraction state. […] An EC50 -value (that is the concentration relaxing the organ by 50% relative to the maximum relaxation) is calculated for each test substance by means of a linear regression analysis (log concentration (μM) as a constant ad abscissa and % relaxation as variable ad ordinate). Sodium nitroprusside (NNP) and SIN-1 are used as reference substances.

IC50 [1]: 180 nM | EC50 [3]: 2700 nM
Structure (SMILES): COc1ccc(Cl)cc1-[n+]1noc([NH-])n1 [Example 20]
% Inhibition of PAI-1 activity ([2]; compared to control): 35% | PAI-1 activity ([2]; human PRP, control 3.24): 2.09 U/10^8 platelets
